Assay: […] against iv dosed Swiss-Webster mouse
Assay type: organism-based
Conditions: in vivo

Question: Which LD50 does the source give for `CC(=O)N1C=C([C@@H]2CCCCN2C)CCC1` here?
Answer: 63.4 mg/kg

Question: For `CC(=O)N1C=C([C@H]2CCCCN2C)CCC1`, which LD50 is on record?
Answer: 56.3 mg/kg

Question: With `CC(=O)N1C=C([C@@H]2CCCCN2)CCC1` as the compound, how does the LD50 read?
Answer: 115 mg/kg

Question: Which LD50 does the source give for `CC(=O)N1C=C([C@H]2CCCCN2)CCC1` here?
Answer: 94.1 mg/kg

Reference: ChEMBL document CHEMBL1158753, “Ammodendrine and N-methylammodendrine enantiomers: isolation, optical rotation, and toxicity” (J Nat Prod, 2005)
